The target of test [1] is T1, JAK2 kinase domain (Homo sapiens, UniProt O60674).
T1 construct: commercially available JAK2 kinase domain; purchased Invitrogen, Eugene, Oreg
The test is described as follows: Biochemical assay for inhibitors of JAK kinase activity (JAK2, 33P-γ-ATP/dowex resin). Particulars: JAK2 kinase domain 1 nM, 60 μM ATP. From the text: Biochemical Assay for Inhibitors of JAK Kinase Activity
Specific JAK2, JAK1 or JAK3 peptide substrates are trans-phosphorylated by JAK kinases in the presence of ATP traced with 33P-γ-ATP. At the end of the phosphorylation reaction, the unreacted ATP, cold and radioactive, is captured by an excess of dowex ion exchange resin that eventually settles by gravity to the bottom of the reaction plate. The supernatant is subsequently withdrawn and transferred into a counting plate that is then evaluated by β-counting.
500 g of wet resin (SIGMA, custom prepared resin DOWEX 1×8 200-400 mesh, 2.5 Kg) are weighed out and diluted 2 to 1 in 150 mM sodium formate, pH 3.00. The resin is allowed to settle down overnight and then the supernatant is discarded. After three washes as above over a couple of days, the resin is allowed to settle and two volumes (with respect to the resin volume) of 150 mM sodium formate buffer are added.
Kinase buffer was composed of 50 mM HEPES pH 7.5 containing 10 mM MgCl2, 2.5 mM DTT, 10 μM Na3VO4 and 0.2 mg/mL BSA.
JAK2 Specific Assay Conditions
The JAK2 kinase assay was run with a final enzyme concentration of 1 nM, in the presence of 60 μM ATP, 3 nM 33P-γ-ATP and 64 μM of substrate BioDBn*306 (Aminoacid sequence: LPLDKDYYVVREPGQ—SEQ ID NO: 1). The peptidic substrate was purchased from American Peptide Company (Sunnyvale, Calif.).
For IC50 determination, test compounds are received as a 1 mM solution in 100% DMSO, distributed into 96 well plates: compounds are then plated into the first column of a microtiter plate (A1 to G1), 100 μL/well.
An automated station for serial dilutions (Biomek FX, Beckman) is used for producing 1:3 dilutions in 100% DMSO, from line A1 to A10, and for all the compounds in the column. Moreover, 4-5 copies of daughter plates are prepared by reformatting 5 μL of this first set of 100% DMSO dilution plates into 384 deep well-plates: one of these plates with the serial dilutions of test compounds will be thawed the day of the experiments, reconstituted at a 3× concentration with water and used in the IC50 determination assays. In a standard experiment, the highest concentration (3×) of all compounds is 30 μM, while the lowest one is 1.5 nM. Each 384 well-plate will contain at least one curve of the standard inhibitor staurosporine and reference wells (total enzyme activity vs. no enzymatic activity) for the Z′ and signal to background evaluation.
384-well plates, V bottom (test plates) are prepared with 5 μL of the compound dilution (3×) and then placed onto a PlateTrak 12 robotized station (Perkin Elmer; the robot has one 384-tip pipetting head for starting the assay plus one 96-tip head for dispensing the resin) together with one reservoir for the Enzyme mix (3×) and one for the ATP mix (3×). At the start of the run, the robot aspirates 5 μL of ATP mix, makes an air gap inside the tips (3 μl) and aspirates 5 μL of JAK2 mix. The following dispensation into the plates plus 3 cycles of mixing, done by the robot itself, starts the kinase reaction. At this point, the correct concentrations are restored for all the reagents. The robot incubates the plates for 60 minutes at room temperature, and then stops the reaction by pipetting 60 μL of dowex resin suspension into the reaction mix. In order to avoid tip clogging, wide bore tips are used to dispense the resin suspension. Three cycles of mixing are done immediately after the addition of the resin. Another mixing cycle is performed after all the plates are stopped, this time using normal tips: the plates are then allowed to rest for about one hour in order to allow resin sedimentation. At this point, 27 μL of the supernatant are transferred into 384-Optiplates (Perkin-Elmer), with 50 μL of Microscint 40 (Perkin-Elmer); after 5 min of orbital shaking the plates are read on a Perkin-Elmer Top Count radioactivity counter. […]

In test [2] the test system is JAK2 dependent human megakaryoblastic leukemia cell line SET-2. In words: Cell proliferation assay (CellTiter-Glo, 72 hours). In kind it is cell-based. Particulars: Homo sapiens, SET-2 cells. As for the experimental part: The JAK2 dependent human megakaryoblastic leukemia cell line SET-2 (DSMZ, Braunschweig GERMANY) and the JAK2 independent human chronic myelogenous leukaemia cell line K562 (ECACC, Wiltshire, UK) were cultured in RPMI-1640 medium-Glutamax (Gibco BRL, Gaithesburg, Md., USA), supplemented with 10% fetal bovine serum (FBS) at 37° C. and 5% CO2.
Cell Proliferation Assay:
Approximately 5×10^3 cells were plated into 384 microtiter plate wells in 50 μL of growth media with different concentrations of inhibitors. The cells were incubated at 37° C. and 5% CO2 for 72 hours, then the plates were processed using CellTiter-Glo assay (Promega, Madison, Wis., USA) following the manufacturer's instruction. Briefly 25 μL/well reagent solution is added to each well and after 5 minutes shaking the micro-plates are read by Envision luminometer (PerkinElmer, Waltham, Mass., USA).
Data are analyzed by Symix Assay Explorer software (Symix Technologies Inc.) that provides sigmoidal fitting algorithm of the 8 points dilutions curves for IC50 determination.

T1 sequence (O60674 849-1124 limits assumed): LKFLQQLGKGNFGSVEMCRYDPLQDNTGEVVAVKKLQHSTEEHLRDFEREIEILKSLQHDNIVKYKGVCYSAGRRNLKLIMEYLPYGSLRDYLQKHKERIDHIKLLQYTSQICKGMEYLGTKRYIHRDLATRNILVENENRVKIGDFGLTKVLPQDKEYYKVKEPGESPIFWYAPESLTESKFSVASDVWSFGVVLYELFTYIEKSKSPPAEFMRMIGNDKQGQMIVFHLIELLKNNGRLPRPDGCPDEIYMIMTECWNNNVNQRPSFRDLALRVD

For `Cc1ccc(Cl)cc1-c1[nH]c(-c2nc(N)ncc2C#Cc2ccccc2)cc1C(N)=O` [compound 1, 5-[2-Amino-5-(phenylethynyl)pyrimidin-4-yl]-2-(5-chloro-2-methylphenyl)-1H-pyrrole-3-carboxamide], the IC50 was 2 nM in test [1] and 300 nM in test [2].
The matching figures for `COc1ccccc1C#Cc1cnc(N)nc1-c1cc(C(N)=O)c(-c2cc(Cl)ccc2C)[nH]1` [compound 5, 5-{2-Amino-5-[(2-methoxyphenyl)ethynyl]pyrimidin-4-yl}-2-(5-chloro-2-methylphenyl)-1H-pyrrole-3-carboxamide]: 5 nM and 750 nM.
The corresponding values for `Cc1ccc(Cl)cc1-c1[nH]c(-c2nc(N)ncc2C#Cc2cccc(NC3CCN(C)CC3)c2)cc1C(N)=O` [compound 12, 5-[2-Amino-5-({3-[(1-methylpiperidin-4-yl)amino]phenyl}ethynyl)pyrimidin-4-yl]-2-(5-chloro-2-methylphenyl)-1H-pyrrole-3-carboxamide] are 1 nM and 500 nM.
The corresponding values for `Cc1ccc(Cl)cc1-c1[nH]c(-c2nc(N)ncc2C#Cc2ccc(N3CCC(N4CCCC4)CC3)cc2)cc1C(N)=O` [compound 26, 5-[2-Amino-5-({4-[4-(pyrrolidin-1-yl)piperidin-1-yl]phenyl}ethynyl)pyrimidin-4-yl]-2-(5-chloro-2-methylphenyl)-1H-pyrrole-3-carboxamide] are 1 nM and 290 nM.
`Cc1ccc(Cl)cc1-c1[nH]c(-c2nc(N)ncc2C#Cc2ccc(N3CCC[C@H]3CN3CCCC3)cc2)cc1C(N)=O` [compound 31, 5-[2-Amino-5-({4-[(2S)-2-(pyrrolidin-1-ylmethyl)pyrrolidin-1-yl]phenyl}ethynyl)pyrimidin-4-yl]-2-(5-chloro-2-methylphenyl)-1H-pyrrole-3-carboxamide]: the IC50 in test [1] is 1 nM; in test [2], 310 nM.
The corresponding values for `Cc1ccc(Cl)cc1-c1[nH]c(-c2nc(N)ncc2C#CC2CC2)cc1C(N)=O` [compound 38, 5-[2-Amino-5-(cyclopropylethynyl)pyrimidin-4-yl]-2-(5-chloro-2-methylphenyl)-1H-pyrrole-3-carboxamide] are 2 nM and 570 nM.
`Cc1ccc(Cl)cc1-c1[nH]c(-c2nc(N)ncc2C#Cc2ccc(Br)cc2)cc1C(N)=O` [compound 40, 5-{2-Amino-5-[(4-bromophenyl)ethynyl]pyrimidin-4-yl}-2-(5-chloro-2-methylphenyl)-1H-pyrrole-3-carboxamide]: the results for the IC50 in test [1] and in test [2] were 85 nM and 2480 nM, respectively.
The matching figures for `Cc1ccc(Cl)cc1-c1[nH]c(-c2nc(N)ncc2C#Cc2ccccc2NCCO)cc1C(N)=O` [compound 43, 5-[2-Amino-5-({2-[(2-hydroxyethyl)amino]phenyl}ethynyl)pyrimidin-4-yl]-2-(5-chloro-2-methylphenyl)-1H-pyrrole-3-carboxamide]: 13 nM and 960 nM.
The corresponding values for `Cc1ccc(Cl)cc1-c1[nH]c(-c2nc(N)ncc2C#CCN(C)C)cc1C(N)=O` [compound 44, 5-{2-Amino-5-[3-(dimethylamino)prop-1-yn-1-yl]pyrimidin-4-yl}-2-(5-chloro-2-methylphenyl)-1H-pyrrole-3-carboxamide] are 11 nM and 460 nM.
The matching figures for `Cc1ccc(Cl)cc1-c1[nH]c(-c2nc(N)ncc2C#Cc2ccccc2NCCN(C)C)cc1C(N)=O` [compound 45, 5-{2-Amino-5-[(2-{[2-(dimethylamino)ethyl]amino}phenyl)ethynyl]pyrimidin-4-yl}-2-(5-chloro-2-methylphenyl)-1H-pyrrole-3-carboxamide]: 10 nM and 560 nM.
As for `Cc1ccc(Cl)cc1-c1[nH]c(-c2nc(N)ncc2C#Cc2cccnc2)cc1C(N)=O` [compound 53, 5-[2-Amino-5-(pyridin-3-ylethynyl)pyrimidin-4-yl]-2-(5-chloro-2-methylphenyl)-1H-pyrrole-3-carboxamide], the figures for the IC50 in test [1] and in test [2] were 2 nM and 110 nM, respectively.
The matching figures for `Cc1ccc(Cl)cc1-c1[nH]c(-c2nc(N)ncc2C#CC(C)(C)O)cc1C(N)=O` [compound 54, 5-[2-Amino-5-(3-hydroxy-3-methylbut-1-yn-1-yl)pyrimidin-4-yl]-2-(5-chloro-2-methylphenyl)-1H-pyrrole-3-carboxamide]: 16 nM and 780 nM.
`Cc1ccc(Cl)cc1-c1[nH]c(-c2nc(N)ncc2C#Cc2ccc(CN3CCN(C)CC3)cc2)cc1C(N)=O` [compound 65, 5-[2-Amino-5-({4-[(4-methylpiperazin-1-yl)methyl]phenyl}ethynyl)pyrimidin-4-yl]-2-(5-chloro-2-methylphenyl)-1H-pyrrole-3-carboxamide]: the results for the IC50 in test [1] and in test [2] were 1 nM and 80 nM, respectively.
The corresponding values for `Cc1ccc(Cl)cc1-c1[nH]c(-c2ccnc(N)n2)c(C#Cc2cccc(NC3CCN(C)CC3)c2)c1C(N)=O` [compound 80, 5-(2-Aminopyrimidin-4-yl)-2-(5-chloro-2-methylphenyl)-4-({3-[(1-methylpiperidin-4-yl)amino]phenyl}ethynyl)-1H-pyrrole-3-carboxamide] are 6 nM and 780 nM.

As usually defined, the IC50 is the concentration that inhibits the measured activity by half.
